# In patent US20230067378A1, “COMPOSITIONS AND METHODS FOR THE TREATMENT OF ESTROGEN-DEPENDENT DISORDERS” (ObsEva S.A., priority 2018, published 2023):
# Test system: pre-menopausal women
# Experiment: uterine bleeding pattern, clinical trial of compound (VI) 200 mg per day (choline salt) with add-back therapy (1.0 mg E2, 0.5 mg norethindrone acetate)
# Assay type: in vivo, human
# Method: The experiments described in this example were conducted as part of a single-center, open-label, randomized, parallel-group clinical trial in 32 pre-menopausal women. Following screening assessments, and during the second half of the menstrual cycle, women received norethindrone (5 mg, three-times daily for 10 days) to synchronize menstrual cycles. After menstrual cycle synchronization, subjects were randomized with a 1:1 ratio to one of two treatment arms: (i) a cohort receiving once-daily administration of compound (VI) (200 mg per day, administered in the form of a choline salt) with concurrent onset of add-back therapy administration for 10 weeks (“Concurrent-ABT”), or (ii) a cohort receiving pre-treatment with compound (VI) (200 mg per day, administered in the form of a choline salt) for 4 weeks followed by combined daily administration of compound (VI) and add-back therapy (“Delayed-ABT”). The add-back therapy used in these experiments contained 1.0 mg of E2 and 0.5 mg of norethindrone acetate, and was administered to subjects once daily.
# The main treatment outcomes and endpoints measured during these experiments included (i) a qualitative assessment of uterine blood loss, which was recorded on a daily basis throughout the study by characterizing each subject's bleeding pattern using one of the following four categories: “no bleeding,” “spotting” (light staining, dark blood, no sanitary protection needed or only panty liner), “bleeding” (1-4 completely soiled maxi sanitary towels or 1-8 soiled tampons or equivalent combination of the two), or “heavy bleeding” (>4 completely soiled maxi sanitary towels or >8 soiled tampons or equivalent combination of the two); (ii) a bi-weekly assessment of each subject's circulating E2 concentration; (iii) a bi-weekly assessment of each subject's circulating progesterone concentration (measured using a validated commercial chemiluminescence immunoassay method (Elecsys Progesterone III, Roche, Burgess Hill, UK)); (iv) the pharmacokinetic profile of compound (VI) and the add-back therapy; and (v) adverse events.
# [1] = Concurrent-ABT group, first half of treatment
# [2] = Concurrent-ABT group, second half of the treatment period
# [3] = Days 1-14, treatment A (Concurrent-ABT), N=16
# [4] = Days 1-14, treatment B (Delayed-ABT), N=16
# [5] = Days 15-28, Overall (A+B), N=32
# [6] = Days 15-28, treatment A (Concurrent-ABT), N=16
# [7] = Days 15-28, treatment B (Delayed-ABT), N=16
# [8] = Days 29-42, Overall (A+B), N=29
# [9] = Days 29-42, treatment A (Concurrent-ABT), N=14
compound,measurement,setting,value
"COc1cc(F)c(-n2c(=O)[nH]c3csc(C(=O)O)c3c2=O)cc1OCc1c(OC)ccc(F)c1F [Compound (VI), 3-[2-fluoro-5-(2,3-difluoro-6-methoxybenzyloxy)4-methoxyphenyl]-2,4-dioxo-1,2,3,4-tetrahydrothieno [3,4d]pyrimidine-5-carboxylic acid]",women who had reached amenorrhea within 5 days of treatment,Concurrent-ABT group,~40%
same,"bleeding, frequency",[1],≤ 4%
same,"spotting, frequency",[1],≤ 10%
same,women in complete amenorrhea (no bleeding),"Concurrent-ABT group, last 4 weeks of treatment",~80%
same,"amenorrhea, frequency",[2],up to 98%
same,"bleeding, frequency",[2],less than 3%
same,"spotting, frequency",[2],1-5%
same,Uterine Bleeding Pattern,"Concurrent-ABT, Weeks 2-4",Spotting and bleeding generally decreased over time
same,Uterine Bleeding Pattern: Bleeding,"Concurrent-ABT, Weeks 2-4",Bleeding: ≤4%
same,Uterine Bleeding Pattern: Spotting,"Concurrent-ABT, Weeks 2-4",Spotting: ≤8%
same,Uterine Bleeding Pattern: Bleeding,"Concurrent-ABT, Weeks 7-10",Bleeding: ≤2%
same,Uterine Bleeding Pattern: Spotting,"Concurrent-ABT, Weeks 7-10",Spotting: 1-5%
same,Uterine Bleeding Pattern: amenorrhea,"Concurrent-ABT, Weeks 7-10",Amenorrhea: Up to 98%
same,"No Bleeding or Spotting, subjects (%), Plasma Estradiol Level 20-50 pg/mL","Days 1-14, Overall (A+B), N=32",(9.4%)
same,"No Bleeding or Spotting, subjects (%), Plasma Estradiol Level <20 pg/mL","Days 1-14, Overall (A+B), N=32",(15.6%)
same,"No Bleeding or Spotting, subjects (%), Plasma Estradiol Level >50 pg/mL","Days 1-14, Overall (A+B), N=32",(3.1%)
same,"No Bleeding or Spotting, subjects (n), Plasma Estradiol Level 20-50 pg/mL","Days 1-14, Overall (A+B), N=32",3
same,"No Bleeding or Spotting, subjects (n), Plasma Estradiol Level <20 pg/mL","Days 1-14, Overall (A+B), N=32",5
same,"No Bleeding or Spotting, subjects (n), Plasma Estradiol Level >50 pg/mL","Days 1-14, Overall (A+B), N=32",1
same,"No Bleeding, subjects (%), Plasma Estradiol Level 20-50 pg/mL","Days 1-14, Overall (A+B), N=32",(0.0%)
same,"No Bleeding, subjects (%), Plasma Estradiol Level <20 pg/mL","Days 1-14, Overall (A+B), N=32",(3.1%)
same,"No Bleeding, subjects (%), Plasma Estradiol Level >50 pg/mL","Days 1-14, Overall (A+B), N=32",(3.1%)
same,"No Bleeding, subjects (n), Plasma Estradiol Level 20-50 pg/mL","Days 1-14, Overall (A+B), N=32",0
same,"No Bleeding, subjects (n), Plasma Estradiol Level <20 pg/mL","Days 1-14, Overall (A+B), N=32",1
same,"No Bleeding, subjects (n), Plasma Estradiol Level >50 pg/mL","Days 1-14, Overall (A+B), N=32",1
same,"No Bleeding or Spotting, subjects (%), Plasma Estradiol Level 20-50 pg/mL",[3],(18.8%)
same,"No Bleeding or Spotting, subjects (%), Plasma Estradiol Level <20 pg/mL",[3],(0.0%)
same,"No Bleeding or Spotting, subjects (%), Plasma Estradiol Level >50 pg/mL",[3],(6.3%)
same,"No Bleeding or Spotting, subjects (n), Plasma Estradiol Level 20-50 pg/mL",[3],3
same,"No Bleeding or Spotting, subjects (n), Plasma Estradiol Level <20 pg/mL",[3],0
same,"No Bleeding or Spotting, subjects (n), Plasma Estradiol Level >50 pg/mL",[3],1
same,"No Bleeding, subjects (%), Plasma Estradiol Level 20-50 pg/mL",[3],(0.0%)
same,"No Bleeding, subjects (%), Plasma Estradiol Level <20 pg/mL",[3],(0.0%)
same,"No Bleeding, subjects (%), Plasma Estradiol Level >50 pg/mL",[3],(6.3%)
same,"No Bleeding, subjects (n), Plasma Estradiol Level 20-50 pg/mL",[3],0
same,"No Bleeding, subjects (n), Plasma Estradiol Level <20 pg/mL",[3],0
same,"No Bleeding, subjects (n), Plasma Estradiol Level >50 pg/mL",[3],1
same,"No Bleeding or Spotting, subjects (%), Plasma Estradiol Level 20-50 pg/mL",[4],(0.0%)
same,"No Bleeding or Spotting, subjects (%), Plasma Estradiol Level <20 pg/mL",[4],(31.3%)
same,"No Bleeding or Spotting, subjects (%), Plasma Estradiol Level >50 pg/mL",[4],(0.0%)
same,"No Bleeding or Spotting, subjects (n), Plasma Estradiol Level 20-50 pg/mL",[4],0
same,"No Bleeding or Spotting, subjects (n), Plasma Estradiol Level <20 pg/mL",[4],5
same,"No Bleeding or Spotting, subjects (n), Plasma Estradiol Level >50 pg/mL",[4],0
same,"No Bleeding, subjects (%), Plasma Estradiol Level 20-50 pg/mL",[4],(0.0%)
same,"No Bleeding, subjects (%), Plasma Estradiol Level <20 pg/mL",[4],(6.3%)
same,"No Bleeding, subjects (%), Plasma Estradiol Level >50 pg/mL",[4],(0.0%)
same,"No Bleeding, subjects (n), Plasma Estradiol Level 20-50 pg/mL",[4],0
same,"No Bleeding, subjects (n), Plasma Estradiol Level <20 pg/mL",[4],1
same,"No Bleeding, subjects (n), Plasma Estradiol Level >50 pg/mL",[4],0
same,"No Bleeding or Spotting, subjects (%), Plasma Estradiol Level 20-50 pg/mL",[5],(34.4%)
same,"No Bleeding or Spotting, subjects (%), Plasma Estradiol Level <20 pg/mL",[5],(53.1%)
same,"No Bleeding or Spotting, subjects (%), Plasma Estradiol Level >50 pg/mL",[5],(3.1%)
same,"No Bleeding or Spotting, subjects (n), Plasma Estradiol Level 20-50 pg/mL",[5],11
same,"No Bleeding or Spotting, subjects (n), Plasma Estradiol Level <20 pg/mL",[5],17
same,"No Bleeding or Spotting, subjects (n), Plasma Estradiol Level >50 pg/mL",[5],1
same,"No Bleeding, subjects (%), Plasma Estradiol Level 20-50 pg/mL",[5],(21.9%)
same,"No Bleeding, subjects (%), Plasma Estradiol Level <20 pg/mL",[5],(50.0%)
same,"No Bleeding, subjects (%), Plasma Estradiol Level >50 pg/mL",[5],(3.1%)
same,"No Bleeding, subjects (n), Plasma Estradiol Level 20-50 pg/mL",[5],7
same,"No Bleeding, subjects (n), Plasma Estradiol Level <20 pg/mL",[5],16
same,"No Bleeding, subjects (n), Plasma Estradiol Level >50 pg/mL",[5],1
same,"No Bleeding or Spotting, subjects (%), Plasma Estradiol Level 20-50 pg/mL",[6],(62.5%)
same,"No Bleeding or Spotting, subjects (%), Plasma Estradiol Level <20 pg/mL",[6],(12.5%)
same,"No Bleeding or Spotting, subjects (%), Plasma Estradiol Level >50 pg/mL",[6],(6.3%)
same,"No Bleeding or Spotting, subjects (n), Plasma Estradiol Level 20-50 pg/mL",[6],10
same,"No Bleeding or Spotting, subjects (n), Plasma Estradiol Level <20 pg/mL",[6],2
same,"No Bleeding or Spotting, subjects (n), Plasma Estradiol Level >50 pg/mL",[6],1
same,"No Bleeding, subjects (%), Plasma Estradiol Level 20-50 pg/mL",[6],(37.5%)
same,"No Bleeding, subjects (%), Plasma Estradiol Level <20 pg/mL",[6],(12.5%)
same,"No Bleeding, subjects (%), Plasma Estradiol Level >50 pg/mL",[6],(6.3%)
same,"No Bleeding, subjects (n), Plasma Estradiol Level 20-50 pg/mL",[6],6
same,"No Bleeding, subjects (n), Plasma Estradiol Level <20 pg/mL",[6],2
same,"No Bleeding, subjects (n), Plasma Estradiol Level >50 pg/mL",[6],1
same,"No Bleeding or Spotting, subjects (%), Plasma Estradiol Level 20-50 pg/mL",[7],(6.3%)
same,"No Bleeding or Spotting, subjects (%), Plasma Estradiol Level <20 pg/mL",[7],(93.8%)
same,"No Bleeding or Spotting, subjects (%), Plasma Estradiol Level >50 pg/mL",[7],(0.0%)
same,"No Bleeding or Spotting, subjects (n), Plasma Estradiol Level 20-50 pg/mL",[7],1
same,"No Bleeding or Spotting, subjects (n), Plasma Estradiol Level <20 pg/mL",[7],15
same,"No Bleeding or Spotting, subjects (n), Plasma Estradiol Level >50 pg/mL",[7],0
same,"No Bleeding, subjects (%), Plasma Estradiol Level 20-50 pg/mL",[7],(6.3%)
same,"No Bleeding, subjects (%), Plasma Estradiol Level <20 pg/mL",[7],(87.5%)
same,"No Bleeding, subjects (%), Plasma Estradiol Level >50 pg/mL",[7],(0.0%)
same,"No Bleeding, subjects (n), Plasma Estradiol Level 20-50 pg/mL",[7],1
same,"No Bleeding, subjects (n), Plasma Estradiol Level <20 pg/mL",[7],14
same,"No Bleeding, subjects (n), Plasma Estradiol Level >50 pg/mL",[7],0
same,"No Bleeding or Spotting, subjects (%), Plasma Estradiol Level 20-50 pg/mL",[8],(55.2%)
same,"No Bleeding or Spotting, subjects (%), Plasma Estradiol Level <20 pg/mL",[8],(13.8%)
same,"No Bleeding or Spotting, subjects (%), Plasma Estradiol Level >50 pg/mL",[8],(20.7%)
same,"No Bleeding or Spotting, subjects (n), Plasma Estradiol Level 20-50 pg/mL",[8],16
same,"No Bleeding or Spotting, subjects (n), Plasma Estradiol Level <20 pg/mL",[8],4
same,"No Bleeding or Spotting, subjects (n), Plasma Estradiol Level >50 pg/mL",[8],6
same,"No Bleeding, subjects (%), Plasma Estradiol Level 20-50 pg/mL",[8],(41.4%)
same,"No Bleeding, subjects (%), Plasma Estradiol Level <20 pg/mL",[8],(13.8%)
same,"No Bleeding, subjects (%), Plasma Estradiol Level >50 pg/mL",[8],(17.2%)
same,"No Bleeding, subjects (n), Plasma Estradiol Level 20-50 pg/mL",[8],12
same,"No Bleeding, subjects (n), Plasma Estradiol Level <20 pg/mL",[8],4
same,"No Bleeding, subjects (n), Plasma Estradiol Level >50 pg/mL",[8],5
same,"No Bleeding or Spotting, subjects (%), Plasma Estradiol Level 20-50 pg/mL",[9],(64.3%)
same,"No Bleeding or Spotting, subjects (%), Plasma Estradiol Level <20 pg/mL",[9],(7.1%)
same,"No Bleeding or Spotting, subjects (%), Plasma Estradiol Level >50 pg/mL",[9],(21.4%)
